# Experimental data taken from patent US8372594B2, “Secreted phospholipase A2 biomarkers for arthritis” (Case Western Reserve University, priority 2009, dated 2013).
# Experiments:
# sPLA2-IIA = biological target: T1, sPLA2-IIA (Homo sapiens, UniProt P14555); test: inhibition of sPLA2-IIA activity; assay type: biochemical; details: finding of the present invention
# T1 sequence (P14555 21-144): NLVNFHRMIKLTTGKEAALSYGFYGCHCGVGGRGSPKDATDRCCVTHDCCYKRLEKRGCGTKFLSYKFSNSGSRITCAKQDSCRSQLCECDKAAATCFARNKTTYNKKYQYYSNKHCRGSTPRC
# several sPLA2 isoforms = test: inhibition of several sPLA2 isoforms; assay type: biochemical
SMILES,preferential inhibition of sPLA2-IIA (sPLA2-IIA),inhibition of the activity of several sPLA2 isoforms (several sPLA2 isoforms)
CCc1c(C(=O)C(N)=O)c2c(OC)cc3ccccc3c2n1Cc1ccccc1 [R0032107A],preferentially inhibit sPLA2-IIA,
CCc1c(C(=O)C(N)=O)c2c(OCC(=O)O)cccc2n1Cc1ccccc1 [Compound B],preferentially inhibit sPLA2-IIA,
CCc1c(C(=O)C(N)=O)c2c(OCC(=O)O)cc3ccccc3c2n1Cc1ccccc1 [R0050907A],,inhibits the activity of several sPLA2 isoforms
